Measured values from US20150157645A1, “COMBINATION OF A 17-ALPHA-HYDROXYLASE (C17,20-LYASE) INHIBITOR AND A SPECIFIC PI-3K INHIBITOR FOR TREATING A TUMOR DISEASE” (priority 2012, published 2015).
Marks after values point to notes of the source that are not given here.

Legend:
[1] = test system: human prostate LNCap xenograft; test: human prostate LnCap xenograft model in SCID mice (study MIS-43P-12); format: in vivo; set-up: Average / Delta avg: unit not given here; conditions: D 300 mg/kg bid, C 30 mg/kg qd; for anti-tumor response (in words): LnCap, single agent, AA 100 mg/kg bid; for T/C [%] / Delta avg / Average: po, C/D 30/300 qd/bid; for Delta avg: change of average tumor volume
Procedure: (§1) Recently, in vivo anti-tumor efficacy of 1-(2-Chloro-pyridin-4-yl)-3-(4-methyl-pyridin-3-yl)-imidazolidin-2-one was evaluated alone and in combination with COMPOUND C or its hydrochloride salt (a pan PI3K inhibitor) in two human prostate cancer xenograft models, VCap and LnCap, established in SCID mice. The VCap tumors which, express PTEN and over-express wild type AR, were established in chemically-castrated mice. The LnCap tumors which, express mutant AR (T877A) and are PTEN null, were initially established in non-castrated animals which were chemically-castrated at the time of treatment.

[2] = test system: human prostate VCap xenograft; test: human prostate VCap xenograft model in SCID mice (studies MIS-32S-12 and MIS-59FVA-12); conditions: for ΔTumor volume (mm^3): mean ± SEM
Procedure: as §1

[3] = MIS-43P-12, day 0 of treatment, E 100 mg/kg bid
[4] = MIS-43P-12, day 4 of treatment, E 100 mg/kg bid
[5] = MIS-43P-12, day 11 of treatment
[6] = MIS-43P-12, day 14 of treatment, E 100 mg/kg bid
[7] = MIS-43P-12, day 18 of treatment, E 100 mg/kg bid
[8] = MIS-43P-12, day 0, E 100 mg/kg bid
[9] = MIS-43P-12, day 4, E 100 mg/kg bid
[10] = MIS-43P-12, day 14, E 100 mg/kg bid
[11] = MIS-43P-12, day 18, E 100 mg/kg bid
[12] = tumor volume (FIG. 3a), MIS-43P-12, day 0 of treatment, E 100 mg/kg bid
[13] = tumor volume, MIS-43P-12, day 4 of treatment, E 100 mg/kg bid
[14] = tumor volume, MIS-43P-12, day 7 of treatment
[15] = tumor volume, MIS-43P-12, day 11 of treatment
[16] = tumor volume, MIS-43P-12, day 14 of treatment, E 100 mg/kg bid
[17] = tumor volume, MIS-43P-12, day 18 of treatment, E 100 mg/kg bid
[18] = MIS-32S-12, Day 14, p.o., D 300 mg/kg bid, AA 100 mg/kg bid, C 30 mg/kg qd, C + D 30 qd + 300 bid
[19] = MIS-32S-12, Day 35, p.o., D 300 mg/kg bid, AA 100 mg/kg bid, C 30 mg/kg qd, C + D 30 qd + 300 bid
[20] = MIS-32S-12, Day 35, p.o., D 300 mg/kg bid, AA 100 mg/kg bid, C 30 mg/kg qd, C + D 30 mg/kg qd + 300 mg/kg bid
[21] = MIS-59FVA-12, Day 14, p.o., D 300 mg/kg bid, C 30 mg/kg qd, C + D 30 qd + 300 bid (so in the source)
[22] = MIS-59FVA-12, Day 14, p.o., D 300 mg/kg bid, C 30 mg/kg qd (so in the source)
[23] = MIS-59FVA-12, Day 23, p.o., D 300 mg/kg bid, C 30 mg/kg qd, C + D 30 qd + 300 bid (so in the source)
[24] = MIS-59FVA-12, Day 23, p.o., D 300 mg/kg bid, C 30 mg/kg qd (so in the source)

Nc1cc(C(F)(F)F)c(-c2cc(N3CCOCC3)nc(N3CCOCC3)n2)cn1 [Compound C, 5-(2,6-di-morpholin-4-yl-pyrimidin-4-yl)-4-trifluoromethyl-pyridin-2-ylamine]
anti-tumor response (in words) [1]: marginal tumor growth delay
T/C [%] [1, 3]: 100%
T/C [%] [1, 4]: 56%
T/C [%] ([1]; MIS-43P-12, day 7 of treatment): 71%
T/C [%] [1, 5]: 86%
T/C [%] [1, 6]: 75%
T/C [%] [1, 7]: 79%
Delta avg [1, 8]: 0
Delta avg [1, 9]: 29
Delta avg ([1]; MIS-43P-12, day 7): 88
Delta avg ([1]; MIS-43P-12, day 11): 198
Delta avg [1, 10]: 261
Delta avg [1, 11]: 375
Average [1, 12]: 170
Average [1, 13]: 199
Average [1, 14]: 258
Average [1, 15]: 369
Average [1, 16]: 432
Average [1, 17]: 546
ΔTumor volume (mm^3) [2, 18]: −18.9 ± 6.3 mm^3
Regression (printed in T/C column) ([2]; MIS-32S-12, Day 14, p.o., C 30 mg/kg qd, C + D 30 mg/kg qd + 300 mg/kg bid): 13.8%*
Survival (alive/total) [2, 18]: 7/7
ΔTumor volume (mm^3) [2, 19]: 23.3 ± 21.6 mm^3
T/C [%] [2, 20]: 5.0*^;$ %
Survival (alive/total) [2, 19]: 7/7
ΔTumor volume (mm^3) [2, 21]: 3.6 ± 7.6 mm^3
T/C [%] [2, 22]: 4.0%*
Survival (alive/total) [2, 21]: 7/7
ΔTumor volume (mm^3) [2, 23]: 25.6 ± 16.4 mm^3
T/C [%] [2, 24]: 12.4* %
Survival (alive/total) [2, 23]: 7/7
anti-tumor response (in words) ([2]; VCap, single agent 20 mg/kg qd): tumor growth delay
anti-tumor response (in words) ([2]; VCap, single agent 30 mg/kg qd): tumor regression

Cc1ccncc1N1CCN(c2ccnc(Cl)c2)C1=O [Compound D, 1-(2-Chloro-pyridin-4-yl)-3-(4-methyl-pyridin-3-yl)-imidazolidin-2-one]
anti-tumor response (in words) [1]: marginal tumor growth delay
T/C [%] [1, 3]: 100%
T/C [%] [1, 4]: 82%
T/C [%] ([1]; MIS-43P-12, day 7 of treatment): 60%
T/C [%] [1, 5]: 85%
T/C [%] [1, 6]: 57%
T/C [%] [1, 7]: 67%
Delta avg [1, 8]: 0
Delta avg [1, 9]: 43
Delta avg ([1]; MIS-43P-12, day 7): 73
Delta avg ([1]; MIS-43P-12, day 11): 197
Delta avg [1, 10]: 200
Delta avg [1, 11]: 317
Average [1, 12]: 174
Average [1, 13]: 217
Average [1, 14]: 248
Average [1, 15]: 372
Average [1, 16]: 375
Average [1, 17]: 491
ΔTumor volume (mm^3) [2, 18]: 35.6 ± 10.5 mm^3
T/C [%] ([2]; MIS-32S-12, Day 14, p.o., D 300 mg/kg bid, AA 100 mg/kg bid, C 30 mg/kg qd, C + D 30 mg/kg qd + 300 mg/kg bid): 27.2*^$ %
ΔTumor volume (mm^3) [2, 19]: 303.9 ± 57.3 mm^3
T/C [%] [2, 20]: 65.2*^;$;# %
ΔTumor volume (mm^3) [2, 21]: 36.3 ± 17.0 mm^3
T/C [%] [2, 22]: 40.3* %
ΔTumor volume (mm^3) [2, 23]: 79.8 ± 20.1 mm^3
T/C [%] [2, 24]: 38.7*^;# %
anti-tumor response (in words) ([2]; two separate VCap experiments, single agent, D 300 mg/kg bid, AA 100 mg/kg bid): either slight tumor regression or tumor stasis initially, followed by tumor growth delay
